Paper PMC10248798, “Arabidopsis nicotianamine synthases comprise a common core-NAS domain fused to a variable autoinhibitory C terminus” (The Journal of Biological Chemistry, 2023)

How the values were obtained:
Format in all cases: biochemical
MetK = biological target: T1, MetK (Escherichia coli, UniProt P0A817); assay: one-pot coupled synthesis of nicotianamine with MtnN and AtNAS1; details: coupled to AtNAS1 and MtnN
T1 construct: full length, C-terminal His6 tag (pET-21b), Ni-NTA purified from E. coli
T1 sequence (P0A817 2-384): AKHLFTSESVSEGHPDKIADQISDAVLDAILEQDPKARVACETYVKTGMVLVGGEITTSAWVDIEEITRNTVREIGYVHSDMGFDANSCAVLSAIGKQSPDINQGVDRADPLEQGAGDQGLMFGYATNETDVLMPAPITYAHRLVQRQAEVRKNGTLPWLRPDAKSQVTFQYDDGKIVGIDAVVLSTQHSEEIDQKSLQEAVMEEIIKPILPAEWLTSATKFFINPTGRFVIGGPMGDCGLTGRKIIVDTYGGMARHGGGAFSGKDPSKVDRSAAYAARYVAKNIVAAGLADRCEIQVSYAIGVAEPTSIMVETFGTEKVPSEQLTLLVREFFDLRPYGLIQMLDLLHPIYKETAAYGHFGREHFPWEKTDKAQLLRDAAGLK

AtNAS4 ΔC47 = biological target: T2, AtNAS4 ΔC47 (Arabidopsis thaliana, UniProt Q9C7X5); assay: coupled spectrophotometric assay (MtnN/AdeD, A265); details: 0.125 mM SAM, 50 mM Tris-HCl pH 8.7, 37 °C
T2 construct: gene NAS4; core-NAS domain, 47 C-terminal residues removed, C-terminal His6 tag (pET-21b), E. coli
T2 sequence (Q9C7X5 1-277): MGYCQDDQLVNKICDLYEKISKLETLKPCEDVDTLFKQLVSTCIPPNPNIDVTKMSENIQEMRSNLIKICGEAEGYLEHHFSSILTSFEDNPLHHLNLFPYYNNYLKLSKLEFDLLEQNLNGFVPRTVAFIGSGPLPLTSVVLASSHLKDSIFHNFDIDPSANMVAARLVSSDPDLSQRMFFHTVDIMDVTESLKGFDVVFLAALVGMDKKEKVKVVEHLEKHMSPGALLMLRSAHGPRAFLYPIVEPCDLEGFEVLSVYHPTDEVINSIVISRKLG

AtNAS3 ΔC42 = biological target: T3, AtNAS3 ΔC42 (Arabidopsis thaliana, UniProt O80483); assay: coupled spectrophotometric assay (MtnN/AdeD, A265); details: 0.125 mM SAM, 50 mM Tris-HCl pH 8.7, 37 °C
T3 construct: gene NAS3; core-NAS domain, 42 C-terminal residues removed, C-terminal His6 tag (pET-21b, NheI/NotI), E. coli
T3 sequence (O80483 1-278): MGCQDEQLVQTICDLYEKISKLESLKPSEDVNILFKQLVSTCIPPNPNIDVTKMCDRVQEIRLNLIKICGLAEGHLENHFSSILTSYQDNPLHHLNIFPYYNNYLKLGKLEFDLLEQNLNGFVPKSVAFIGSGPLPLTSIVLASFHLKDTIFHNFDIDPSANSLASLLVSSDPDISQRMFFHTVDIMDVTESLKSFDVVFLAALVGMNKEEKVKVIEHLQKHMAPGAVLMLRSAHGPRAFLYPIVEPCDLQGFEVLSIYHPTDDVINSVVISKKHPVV

MtnN = biological target: T4, MtnN (Escherichia coli, UniProt P0AF12); assay: TLC; details: 2.5 mM MTA, 50 mM Tris/HCl pH 8.7, 30 °C
T4 construct: full length, C-terminal His6 tag (pET-21b), Ni-NTA purified from E. coli

AdeD = biological target: T5, AdeD (Escherichia coli, UniProt P31441); assay: TLC; details: 3 mM adenine, 50 mM Tris/HCl pH 8.7, 30 °C
T5 construct: gene ade; full length, C-terminal His6 tag (pET-21b), Ni-NTA purified from E. coli
T5 sequence (P31441 whole entry): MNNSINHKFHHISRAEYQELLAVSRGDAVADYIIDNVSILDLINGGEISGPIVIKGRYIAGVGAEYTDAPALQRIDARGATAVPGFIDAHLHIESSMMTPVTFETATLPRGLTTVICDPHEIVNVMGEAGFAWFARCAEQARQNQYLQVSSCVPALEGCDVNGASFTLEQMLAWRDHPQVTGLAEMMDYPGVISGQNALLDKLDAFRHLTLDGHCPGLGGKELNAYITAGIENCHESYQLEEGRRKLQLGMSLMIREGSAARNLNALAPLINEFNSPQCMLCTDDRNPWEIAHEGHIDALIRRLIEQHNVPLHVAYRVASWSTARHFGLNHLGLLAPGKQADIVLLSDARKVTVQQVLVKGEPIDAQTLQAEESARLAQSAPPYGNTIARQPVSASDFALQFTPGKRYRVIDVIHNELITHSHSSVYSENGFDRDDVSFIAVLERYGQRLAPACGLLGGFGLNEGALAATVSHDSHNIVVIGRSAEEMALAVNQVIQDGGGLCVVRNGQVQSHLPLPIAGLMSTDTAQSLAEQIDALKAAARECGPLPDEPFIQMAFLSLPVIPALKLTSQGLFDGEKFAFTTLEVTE

T4 sequence (P0AF12 whole entry): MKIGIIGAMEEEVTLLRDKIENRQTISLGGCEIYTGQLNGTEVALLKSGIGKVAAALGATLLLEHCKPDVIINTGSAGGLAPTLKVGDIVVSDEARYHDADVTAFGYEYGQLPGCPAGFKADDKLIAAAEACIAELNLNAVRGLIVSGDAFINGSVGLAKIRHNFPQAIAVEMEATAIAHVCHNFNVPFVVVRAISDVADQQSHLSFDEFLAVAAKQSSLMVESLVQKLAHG

With CSCC[C@H](N)C(=O)O [L-methionine] the “one-pot coupled synthesis of nicotianamine with MtnN and AtNAS1” value (MetK; co-substrate ATP) was “we combined MetK with MtnN and AtNAS1 for the one-pot synthesis of NA from ATP”.
For C[S+](CC[C@H](N)C(=O)O)C[C@H]1O[C@@H](n2cnc3c(N)ncnc32)[C@H](O)[C@@H]1O (stereo partly drawn) [SAM], the “coupled spectrophotometric assay (MtnN/AdeD, A265)” value (AtNAS4 ΔC47) was “The truncated variants of AtNAS3 and AtNAS4 also showed strongly increased activities” and the “coupled spectrophotometric assay (MtnN/AdeD, A265)” value (AtNAS3 ΔC42) was “The truncated variants of AtNAS3 and AtNAS4 also showed strongly increased activities”.
CSC[C@H]1O[C@@H](n2cnc3c(N)ncnc32)[C@H](O)[C@@H]1O [MTA] was tested, and the TLC (MtnN) was “MtnN- and AdeD, were active in NAS reaction buffer when assayed individually with their respective substrates”.
For Nc1ncnc2c1ncn2[C@@H]1O[C@H](COP(=O)(O)OP(=O)(O)OP(=O)(O)O)[C@@H](O)[C@H]1O [ATP], the “one-pot coupled synthesis of nicotianamine with MtnN and AtNAS1” value (MetK; co-substrate L-methionine) was “we combined MetK with MtnN and AtNAS1 for the one-pot synthesis of NA from ATP”.
Nc1ncnc2[nH]cnc12 [adenine] was tested, and the TLC (AdeD) was “MtnN- and AdeD, were active in NAS reaction buffer when assayed individually with their respective substrates”.
